From PubChem BioAssay (NCI)
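Interpolation was linear, between the two tested concentrations surrounding the appropriate level; five concentrations were tested over 48 hours in 96-well plates. TGI: concentration producing complete growth inhibition.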

Tests used:
Experiment in all cases: NCI anticancer screen, dose series, 48 h
TK-10 renal = test system: TK-10 renal
SK-OV-3 ovarian = test system: SK-OV-3 ovarian
NCI-H23 lung = test system: NCI-H23 lung
U251 CNS = test system: U251 CNS
HL-60(TB) leukemia = test system: HL-60(TB) leukemia
HOP-62 NSCLC = test system: HOP-62 NSCLC
HT29 colon = test system: HT29 colon
LOX IMVI melanoma = test system: LOX IMVI melanoma
A549 NSCLC = test system: A549 NSCLC
SNB-19 CNS = test system: SNB-19 CNS
CCRF-CEM leukemia = test system: CCRF-CEM leukemia
ACHN renal = test system: ACHN renal
NCI-H226 lung = test system: NCI-H226 lung
SNB-75 CNS = test system: SNB-75 CNS
KM12 colon = test system: KM12 colon
786-0 renal = test system: 786-0 renal
CAKI-1 renal = test system: CAKI-1 renal
OVCAR-3 ovarian = test system: OVCAR-3 ovarian
SK-MEL-5 melanoma = test system: SK-MEL-5 melanoma
MOLT-4 leukemia = test system: MOLT-4 leukemia
RXF-631 renal = test system: RXF-631 renal
EKVX NSCLC = test system: EKVX NSCLC
HCC-2998 colon = test system: HCC-2998 colon
SW-620 colon = test system: SW-620 colon
KM20L2 colon = test system: KM20L2 colon
SN12C renal = test system: SN12C renal
IGROV1 ovarian = test system: IGROV1 ovarian
SNB-78 CNS = test system: SNB-78 CNS
UACC-62 melanoma = test system: UACC-62 melanoma
COLO 205 colon = test system: COLO 205 colon
SK-MEL-2 melanoma = test system: SK-MEL-2 melanoma
M19-MEL melanoma = test system: M19-MEL melanoma
OVCAR-8 ovarian = test system: OVCAR-8 ovarian
OVCAR-5 ovarian = test system: OVCAR-5 ovarian
HCT-116 colon = test system: HCT-116 colon
DMS 273 small cell lung = test system: DMS 273 small cell lung
RPMI-8226 leukemia = test system: RPMI-8226 leukemia
UACC-257 melanoma = test system: UACC-257 melanoma
SF-295 CNS = test system: SF-295 CNS
M14 melanoma = test system: M14 melanoma
XF 498 CNS = test system: XF 498 CNS
HOP-92 NSCLC = test system: HOP-92 NSCLC
K-562 leukemia = test system: K-562 leukemia
SF-268 CNS = test system: SF-268 CNS
MALME-3M melanoma = test system: MALME-3M melanoma
SK-MEL-28 melanoma = test system: SK-MEL-28 melanoma
A498 renal = test system: A498 renal
SF-539 CNS = test system: SF-539 CNS
LXFL 529 NSCLC = test system: LXFL 529 NSCLC
HCT-15 colon = test system: HCT-15 colon
OVCAR-4 ovarian = test system: OVCAR-4 ovarian
RXF 393 renal = test system: RXF 393 renal
NCI-H460 lung = test system: NCI-H460 lung
SR leukemia = test system: SR leukemia
DMS 114 small cell lung = test system: DMS 114 small cell lung
HOP-18 NSCLC = test system: HOP-18 NSCLC
UO-31 renal = test system: UO-31 renal
DLD-1 colon = test system: DLD-1 colon

Structure (SMILES): CN(/N=C\c1ccnc2ccccc12)c1ccc([N+](=O)[O-])cc1
- TGI (TK-10 renal): > 100 µM
- TGI (SK-OV-3 ovarian): > 100 µM
- TGI (NCI-H23 lung): > 100 µM
- TGI (U251 CNS): > 100 µM
- TGI (HL-60(TB) leukemia): > 100 µM
- TGI (HOP-62 NSCLC): > 100 µM
- TGI (HT29 colon): > 100 µM
- TGI (LOX IMVI melanoma): > 100 µM
- TGI (A549 NSCLC): > 100 µM
- TGI (SNB-19 CNS): > 100 µM
- TGI (CCRF-CEM leukemia): 82.5 µM
- TGI (ACHN renal): > 100 µM
- TGI (NCI-H226 lung): > 100 µM
- TGI (SNB-75 CNS): > 100 µM
- TGI (KM12 colon): > 100 µM
- TGI (786-0 renal): > 100 µM
- TGI (CAKI-1 renal): > 100 µM
- TGI (OVCAR-3 ovarian): > 100 µM
- TGI (SK-MEL-5 melanoma): > 100 µM
- TGI (MOLT-4 leukemia): > 100 µM
- TGI (RXF-631 renal): > 100 µM
- TGI (EKVX NSCLC): > 100 µM
- TGI (HCC-2998 colon): > 100 µM
- TGI (SW-620 colon): > 100 µM
- TGI (KM20L2 colon): > 100 µM
- TGI (SN12C renal): > 100 µM
- TGI (IGROV1 ovarian): > 100 µM
- TGI (SNB-78 CNS): > 100 µM
- TGI (UACC-62 melanoma): > 100 µM
- TGI (COLO 205 colon): > 100 µM
- TGI (SK-MEL-2 melanoma): > 100 µM
- TGI (M19-MEL melanoma): > 100 µM
- TGI (OVCAR-8 ovarian): > 100 µM
- TGI (OVCAR-5 ovarian): > 100 µM
- TGI (HCT-116 colon): > 100 µM
- TGI (DMS 273 small cell lung): > 100 µM
- TGI (RPMI-8226 leukemia): 65.4 µM
- TGI (UACC-257 melanoma): > 100 µM
- TGI (SF-295 CNS): > 100 µM
- TGI (M14 melanoma): > 100 µM
- TGI (XF 498 CNS): > 100 µM
- TGI (HOP-92 NSCLC): > 100 µM
- TGI (K-562 leukemia): > 100 µM
- TGI (SF-268 CNS): > 100 µM
- TGI (MALME-3M melanoma): > 100 µM
- TGI (SK-MEL-28 melanoma): > 100 µM
- TGI (A498 renal): > 100 µM
- TGI (SF-539 CNS): > 100 µM
- TGI (LXFL 529 NSCLC): > 100 µM
- TGI (HCT-15 colon): > 100 µM

Structure (SMILES): COc1nc(N)c(NC(C)=O)c(=O)n1C
- TGI (TK-10 renal): > 100 µM
- TGI (NCI-H23 lung): > 100 µM
- TGI (U251 CNS): > 100 µM
- TGI (HL-60(TB) leukemia): > 100 µM
- TGI (OVCAR-4 ovarian): > 100 µM
- TGI (HT29 colon): > 100 µM
- TGI (LOX IMVI melanoma): > 100 µM
- TGI (RXF 393 renal): > 100 µM
- TGI (A549 NSCLC): > 100 µM
- TGI (SNB-19 CNS): > 100 µM
- TGI (CCRF-CEM leukemia): > 100 µM
- TGI (ACHN renal): > 100 µM
- TGI (SNB-75 CNS): > 100 µM
- TGI (KM12 colon): > 100 µM
- TGI (CAKI-1 renal): > 100 µM
- TGI (MOLT-4 leukemia): > 100 µM
- TGI (RXF-631 renal): > 100 µM
- TGI (NCI-H460 lung): > 100 µM
- TGI (EKVX NSCLC): > 100 µM
- TGI (HCC-2998 colon): > 100 µM
- TGI (SW-620 colon): > 100 µM
- TGI (KM20L2 colon): > 100 µM
- TGI (SN12C renal): > 100 µM
- TGI (IGROV1 ovarian): > 100 µM
- TGI (SR leukemia): > 100 µM
- TGI (SNB-78 CNS): > 100 µM
- TGI (COLO 205 colon): > 100 µM
- TGI (DMS 114 small cell lung): > 100 µM
- TGI (SK-MEL-2 melanoma): > 100 µM
- TGI (OVCAR-8 ovarian): > 100 µM
- TGI (HOP-18 NSCLC): > 100 µM
- TGI (OVCAR-5 ovarian): > 100 µM
- TGI (HCT-116 colon): > 100 µM
- TGI (DMS 273 small cell lung): > 100 µM
- TGI (RPMI-8226 leukemia): > 100 µM
- TGI (UACC-257 melanoma): > 100 µM
- TGI (SF-295 CNS): > 100 µM
- TGI (M14 melanoma): > 100 µM
- TGI (XF 498 CNS): > 100 µM
- TGI (HOP-92 NSCLC): > 100 µM
- TGI (K-562 leukemia): > 100 µM
- TGI (SF-268 CNS): > 100 µM
- TGI (MALME-3M melanoma): > 100 µM
- TGI (SK-MEL-28 melanoma): > 100 µM
- TGI (A498 renal): > 100 µM
- TGI (SF-539 CNS): > 100 µM
- TGI (LXFL 529 NSCLC): > 100 µM
- TGI (UO-31 renal): > 100 µM
- TGI (HCT-15 colon): > 100 µM
- TGI (DLD-1 colon): > 100 µM
